Laboratory results as given in the supplement of paper PMC8253809.

Tests used:
DIPGX29 [1] = H3.3 K27M diffuse intrinsic pontine glioma line; assay: maximal growth inhibition (yFin) relative to DMSO / staurosporine; higher = more efficacious
How it was run: (§1)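 Compounds were delivered by pin tool as a 10-point threefold dilution series with a mean top concentration of 35 μM, in triplicate, to patient-derived pHGG/DIPG cell lines and astrocyte controls growing on 1% Geltrex-coated 384-well plates. Incubation lasted 7 days, or 3 days for iAstro, at 37 °C with 5% CO2. EC50 and maximal response (yFin) come from the three- or four-parameter log-logistic fit with the lowest AICc, applied to pooled, log2-transformed CellTiter-Glo luminescence normalised per plate to % activity between solvent (negative) and positive control wells.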

HGGX2 [2] = paediatric high-grade glioma line; assay: as above
How it was run: as §1

SUDIPGIV [3] = diffuse intrinsic pontine glioma line; assay: as above
How it was run: as §1

DIPGX37 [4] = H3.3 K27M diffuse intrinsic pontine glioma line; assay: as above
How it was run: as §1

SUDIPGXIX [5] = diffuse intrinsic pontine glioma line; assay: as above
How it was run: as §1

DIPGX9 [6] = diffuse intrinsic pontine glioma line; assay: as above
How it was run: as §1

SUDIPGVI [7] = diffuse intrinsic pontine glioma line; assay: as above
How it was run: as §1

HABS [8] = astrocyte control; assay: as above
How it was run: as §1

HGGX39 [9] = paediatric high-grade glioma line; assay: as above
How it was run: as §1

iAstro [10] = astrocyte control; assay: as above
How it was run: as §1

SUDIPGXXI [11] = diffuse intrinsic pontine glioma line; assay: as above
How it was run: as §1

DIPGX29 [12] = assay: area under dose-response curve of % growth inhibition (log2 RLU vs DMSO / staurosporine), 1e-11 to 1e-4 M (% x log10 M); higher = more growth inhibition
How it was run: (§2)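 Area under the curve was derived with the trapezoid rule from a fitted log-logistic curve, switching to a smoothing spline if the sigmoid fit failed. It rested on per-plate % activity between solvent and positive controls, calculated from log2-transformed CellTiter-Glo luminescence after 7 days of exposure (3 days for iAstro) at 37 °C, 5% CO2. Patient-derived pHGG/DIPG lines and astrocytes on 1% Geltrex-coated 384-well plates received a 10-point threefold dilution series, mean top concentration 35 μM, in triplicate.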

HGGX2 [13] = assay: as above
How it was run: as §2

SUDIPGIV [14] = assay: as above
How it was run: as §2

DIPGX37 [15] = assay: as above
How it was run: as §2

DIPGX7 = H3.3 K27M diffuse intrinsic pontine glioma line; assay: as above
How it was run: as §2

SUDIPGXIX [16] = assay: as above
How it was run: as §2

DIPGX9 [17] = assay: as above
How it was run: as §2

SUDIPGVI [18] = assay: as above
How it was run: as §2

HGGX6 = H3.3 G34R paediatric high-grade glioma line; assay: as above
How it was run: as §2

HABS [19] = assay: as above
How it was run: as §2

SUDIPGXVII [20] = diffuse intrinsic pontine glioma line; assay: as above
How it was run: as §2

SUDIPGXIII [21] = diffuse intrinsic pontine glioma line; assay: as above
How it was run: as §2

HGGX42 [22] = H3.3 G34R paediatric high-grade glioma line; assay: as above
How it was run: as §2

HGGX39 [23] = assay: as above
How it was run: as §2

iAstro [24] = assay: as above
How it was run: as §2

SUDIPGXXI [25] = assay: as above
How it was run: as §2

DIPGX29 [26] = assay: EC50 (inflection of fitted growth-inhibition curve) (log10 M)
How it was run: as §1

HGGX2 [27] = assay: as above
How it was run: as §1

SUDIPGIV [28] = assay: as above
How it was run: as §1

DIPGX37 [29] = assay: as above
How it was run: as §1

SUDIPGXIX [30] = assay: as above
How it was run: as §1

DIPGX9 [31] = assay: as above
How it was run: as §1

SUDIPGVI [32] = assay: as above
How it was run: as §1

HABS [33] = assay: as above
How it was run: as §1

HGGX39 [34] = assay: as above
How it was run: as §1

iAstro [35] = assay: as above
How it was run: as §1

SUDIPGXXI [36] = assay: as above
How it was run: as §1

SUDIPGXVII [37] = assay: maximal growth inhibition (yFin) relative to DMSO / staurosporine; higher = more efficacious
How it was run: as §1

SUDIPGXIII [38] = assay: as above
How it was run: as §1

HGGX42 [39] = assay: as above
How it was run: as §1

SUDIPGXVII [40] = assay: EC50 (inflection of fitted growth-inhibition curve) (log10 M)
How it was run: as §1

SUDIPGXIII [41] = assay: as above
How it was run: as §1

HGGX42 [42] = assay: as above
How it was run: as §1

SMILES | maximal growth inhibition (SUDIPGIV [3]) [%] | maximal growth inhibition (DIPGX37 [4]) [%] | maximal growth inhibition (SUDIPGXIX [5]) [%] | maximal growth inhibition (DIPGX9 [6]) [%] | maximal growth inhibition (HABS [8]) [%] | maximal growth inhibition (HGGX39 [9]) [%] | maximal growth inhibition (iAstro [10]) [%] | maximal growth inhibition (SUDIPGXXI [11]) [%] | area under dose-response curve (DIPGX29 [12]) | area under dose-response curve (HGGX2 [13]) | area under dose-response curve (SUDIPGIV [14]) | area under dose-response curve (DIPGX37 [15]) | area under dose-response curve (DIPGX7) | area under dose-response curve (SUDIPGXIX [16]) | area under dose-response curve (DIPGX9 [17]) | area under dose-response curve (SUDIPGVI [18]) | area under dose-response curve (HGGX6) | area under dose-response curve (HABS [19]) | area under dose-response curve (SUDIPGXVII [20]) | area under dose-response curve (SUDIPGXIII [21]) | also measured
COC(=O)Nc1nc2cc(C(=O)c3ccccc3)ccc2[nH]1 [MEBENDAZOLE] | 63.1 | 36.4 | 31.4 | 36.9 | 32.9 | 28.5 | 28.1 | 98.3 | 53.6 | 93.5 | 93.5 | 94.4 | 20.7 | 71 | 90 | 30.4 | 27.4 | 80.6 | 40.1 | 17.5 | maximal growth inhibition (DIPGX29 [1]): 25.1%; maximal growth inhibition (HGGX2 [2]): 47.6%; maximal growth inhibition (SUDIPGVI [7]): 22.1%; area under dose-response curve (HGGX42 [22]): 38.7; area under dose-response curve (HGGX39 [23]): 73.2; area under dose-response curve (iAstro [24]): 47.3; area under dose-response curve (SUDIPGXXI [25]): 246; EC50 (log10 M) (DIPGX29 [26]): -6.23; EC50 (log10 M) (HGGX2 [27]): -5.91; EC50 (log10 M) (SUDIPGIV [28]): -5.58; EC50 (log10 M) (DIPGX37 [29]): -6.7; EC50 (log10 M) (SUDIPGXIX [30]): -6.45; EC50 (log10 M) (DIPGX9 [31]): -6.44; EC50 (log10 M) (SUDIPGVI [32]): -5.51; EC50 (log10 M) (HABS [33]): -6.45; EC50 (log10 M) (HGGX39 [34]): -6.61; EC50 (log10 M) (iAstro [35]): -5.94; EC50 (log10 M) (SUDIPGXXI [36]): -6.53
CC[C@@]1(O)C(=O)OCc2c1cc1n(c2=O)Cc2cc3c(CN(C)C)c(O)ccc3nc2-1 [TOPOTECAN] | 87.4 | 103 | 98.6 | 96.3 | 64.3 | 85.3 | 34.6 | 79 | 71 | 121 | 317 | 150 | 118 | 267 | 287 | 71.8 | 75.7 | 204 | 84.5 | 60 | maximal growth inhibition (SUDIPGXVII [37]): 39%; maximal growth inhibition (SUDIPGXIII [38]): 26%; maximal growth inhibition (HGGX42 [39]): 37.5%; area under dose-response curve (HGGX42 [22]): 119; area under dose-response curve (HGGX39 [23]): 138; area under dose-response curve (iAstro [24]): 134; area under dose-response curve (SUDIPGXXI [25]): 351; EC50 (log10 M) (SUDIPGIV [28]): -7.62; EC50 (log10 M) (DIPGX37 [29]): -4.78; EC50 (log10 M) (SUDIPGXIX [30]): -5.74; EC50 (log10 M) (DIPGX9 [31]): -6.06; EC50 (log10 M) (HABS [33]): -6.83; EC50 (log10 M) (SUDIPGXVII [40]): -6.09; EC50 (log10 M) (SUDIPGXIII [41]): -5.85; EC50 (log10 M) (HGGX42 [42]): -7.08; EC50 (log10 M) (HGGX39 [34]): -5.44; EC50 (log10 M) (iAstro [35]): -7.87; EC50 (log10 M) (SUDIPGXXI [36]): -8.44
CC(=O)Nc1cccc(-n2c(=O)n(C3CC3)c(=O)c3c(Nc4ccc(I)cc4F)n(C)c(=O)c(C)c32)c1 [TRAMETINIB] | 26.3 | 88.3 | 106 | 99.2 | 78.3 | 53.5 | 32.2 | 91.1 | 176 | 96.1 | 66.9 | 299 | 29.4 | 345 | 334 | 62.1 | 47.4 | 162 | 135 | 173 | maximal growth inhibition (DIPGX29 [1]): 54.2%; maximal growth inhibition (SUDIPGXVII [37]): 47.3%; maximal growth inhibition (SUDIPGXIII [38]): 42.5%; maximal growth inhibition (HGGX42 [39]): 46.1%; area under dose-response curve (HGGX42 [22]): 51.4; area under dose-response curve (HGGX39 [23]): 74.7; area under dose-response curve (iAstro [24]): 19; area under dose-response curve (SUDIPGXXI [25]): 358; EC50 (log10 M) (DIPGX29 [26]): -7.25; EC50 (log10 M) (SUDIPGIV [28]): -6.66; EC50 (log10 M) (DIPGX37 [29]): -7.38; EC50 (log10 M) (SUDIPGXIX [30]): -7.25; EC50 (log10 M) (DIPGX9 [31]): -7.37; EC50 (log10 M) (HABS [33]): -6.03; EC50 (log10 M) (SUDIPGXVII [40]): -6.86; EC50 (log10 M) (SUDIPGXIII [41]): -7.34; EC50 (log10 M) (HGGX42 [42]): -4.9; EC50 (log10 M) (HGGX39 [34]): -5.15; EC50 (log10 M) (iAstro [35]): -4.63; EC50 (log10 M) (SUDIPGXXI [36]): -7.93
